Experimental data from US20200339511A1, “Substituted indoline derivatives as dengue viral replication inhibitors” (priority 2016, published 2020).
Like-named read-outs stand apart in the source and are kept apart here.

Experiments:
[1] = test system: DENV-2 16681 strain; experiment: DENV-2 antiviral assay (eGFP-labeled virus in Vero cells); format: cell-based, Dengue virus; conditions: DENV-2 16681 eGFP, MOI 0.5, 3 days
Protocol: The antiviral activity of all the compounds of the invention was tested the against DENV-2 16681 strain which was labeled with enhanced green fluorescent protein (eGPF). The culture medium consists of minimal essential medium supplemented with 2% of heat-inactivated fetal calf serum, 0.04% gentamycin (50 mg/mL) and 2 mM of L-glutamine. Vero cells, obtained from ECACC, were suspended in culture medium and 25 μL was added to 384-well plates (2500 cells/well), which already contain the antiviral compounds. Typically, these plates contain a 5-fold serial dilution of 9 dilution steps of the test compound at 200 times the final concentration in 100% DMSO (200 nL). […] Finally, each plate contains wells which are assigned as virus controls (containing cells and virus in the absence of compound), cell controls (containing cells in the absence of virus and compound) and medium controls (containing medium in the absence of cells, virus and compounds). To the wells assigned as medium control, 25 μL of culture medium was added instead of Vero cells. Once the cells were added to the plates, the plates were incubated for 30 minutes at room temperature to allow the cells to distribute evenly within the wells. Next, the plates were incubated in a fully humidified incubator (37° C., 5% CO2) until the next day. Then, DENV-2 strain 16681, labeled with eGFP, was added at a multiplicity of infection (MOI) of 0.5. Therefore, 15 μL of virus suspension was added to all the wells containing test compound and to the wells assigned as virus control. In parallel, 15 μL of culture medium was added to the medium and cell controls. Next, the plates were incubated for 3 days in a fully humidified incubator (37° C., 5% CO2). At the day of the read out, the eGFP fluorescence was measured using an automated fluorescence microscope at 488 nm (blue laser). Using an in-house LIMS system, inhibition dose response curves for each compound were calculated and the half maximal effective concentration (EC50) was determined. Therefore, the percent inhibition (I) for every test concentration is calculated using the following formula: I=100*(ST-SCC)/(SVC-SCC), ST, SCC and SVC are the amount of eGFP signal in the test compound, cell control and virus control wells, respectively. The EC50 represents the concentration of a compound at which the virus replication is inhibited with 50%, as measured by a 50% reduction of the eGFP fluorescent intensity compared to the virus control. The EC50 is calculated using linear interpolation (Table 1).

[2] = test system: DENV-1 strain TC974#666; experiment: Tetravalent RT-qPCR assay, serotype 1; format: cell-based, Dengue virus; conditions: RT-qPCR serotype 1 TC974#666, Protocol A, Vero cells, day 3
Protocol: (§1) Tetravalent reverse transcriptase quantitative-PCR (RT-qPCR) assay The antiviral activity of the compounds of the invention was tested against DENV-1 strain TC974#666 (NCPV), DENV-2 strain 16681, DENV-3 strain H87 (NCPV) and DENV-4 strain H241 (NCPV) in a RT-qPCR assay. Therefore, Vero cells were infected with either DENV-1, or -2, or -3, or -4 in the presence or absence of test compounds. At day 3 post-infection, the cells were lysed and cell lysates were used to prepare cDNA of both a viral target (the 3′UTR of DENV; Table 2) and a cellular reference gene (β-actin, Table 2). Subsequently, a duplex real time PCR was performed on a Lightcycler480 instrument. The generated Cp value is inversely proportional to the amount of RNA expression of these targets. Inhibition of DENV replication by a test compound results in a shift of Cp's for the 3′UTR gene. On the other hand, if a test compound is toxic to the cells, a similar effect on β-actin expression will be observed. The comparative ΔΔCp method is used to calculate EC50, which is based on the relative gene expression of the target gene (3′UTR) normalized with the cellular housekeeping gene (β-actin). In addition, CC50 values are determined based on the Cp values acquired for the housekeeping gene β-actin.
(§2) The culture medium consisted of minimal essential medium supplemented with 2% of heat-inactivated fetal calf serum, 0.04% gentamycin (50mg/mL) and 2 mM of L-glutamine. Vero cells, obtained from ECACC, were suspended in culture medium and 75 μL/well was added in 96-well plates (10000 cells/well), which already contain the antiviral compounds. […] In addition, each plate contains wells which are assigned as virus controls (containing cells and virus in the absence of compound) and cell controls (containing cells in the absence of virus and compound). Once the cells were added in the plates, the plates were incubated in a fully humidified incubator (37° C., 5% CO2) until the next day. Dengue viruses serotype-1, 2, 3 and 4 were diluted in order to obtain a Cp of ˜22-24 in the assay. Therefore, 25 μL of virus suspension was added to all the wells containing test compound and to the wells assigned as virus control. In parallel, 25 μL of culture medium was added to the cell controls. Next, the plates were incubated for 3 days in a fully humidified incubator (37° C., 5% CO2). After 3 days, the supernatant was removed from the wells and the cells were washed twice with ice-cold PBS (˜100 μL). The cell pellets within the 96-well plates were stored at −80° C. for at least 1 day. Next, RNA was extracted using the Cells-to-CT™ lysis kit, according to the manufacturer's guideline (Life Technologies). The cell lysates can be stored at −80° C. or immediately used in the reverse transcription step.
(§3) In preparation of the reverse transcription step, mix A (table 3A) was prepared and 7.57 μL/well was dispensed in a 96-well plate. After addition of 5 μL of the cell lysates, a five minute denaturation step at 75° C. was performed (table 3B). Afterwards, 7.43 μL of mix B was added (table 3C) and the reverse transcription step was initiated (table 3D) to generate cDNA.
(§4) Finally, a RT-qPCR mix was prepared, mix C (table 4A), and 22.02 μL/well was dispensed in 96-well LightCycler qPCR plates to which 3μL of cDNA was added and the qPCR was performed according to the conditions in table 4B on a LightCycler 480.
(§5) Using the LightCycler software and an in-house LIMS system, dose response curves for each compound were calculated and the half maximal effective concentration (EC50) and the half maximal cytotoxic concentration (CC50) were determined (Tables 5-8).

[3] = test system: DENV-2 strain 16681; experiment: Tetravalent RT-qPCR assay, serotype 2; format: cell-based, Dengue virus; conditions: RT-qPCR serotype 2 16681, Protocol A, Vero cells, day 3
Protocol: as §1, §2, §3, §4, §5

[4] = test system: DENV-3 strain H87; experiment: Tetravalent RT-qPCR assay, serotype 3; format: cell-based, Dengue virus; conditions: RT-qPCR serotype 3 H87, Protocol A, Vero cells, day 3
Protocol: as §1, §2, §3, §4, §5

[5] = test system: DENV-4 strain H241; experiment: Tetravalent RT-qPCR assay, serotype 4; format: cell-based, Dengue virus; conditions: RT-qPCR serotype 4 H241, Protocol A, Vero cells, day 3, read-out: EC50
Protocol: as §1, §2, §3, §4, §5

[6] = test system: Vero cells; conditions: African green monkey
[7] = in vitro; conditions: African green monkey
[8] = Dengue virus, DENV1, Vero, 72 h
[9] = Dengue virus, DENV2, Vero, 72 h
[10] = Dengue virus, DENV3, Vero, 72 h
[11] = Dengue virus, DENV4, Vero, 72 h

COc1cc(NC(C(=O)N2CCc3ccc(C(F)(F)F)cc32)c2ccc(Cl)cc2OC)cc(OCCO)c1 (single isomer, unassigned) [Compound 1B, 2-(4-chloro-2-methoxyphenyl)-2-((3-(2-hydroxyethoxy)-5-methoxyphenyl)amino)-1-(6-(trifluoromethyl)indolin-1-yl)ethanone]
EC50 [1]: 3.6 nM
EC50 [2, 8]: 4.4 nM
EC50 [3, 9]: 3.6 nM
EC50 [4, 10]: 56 nM
EC50 [5, 11]: 250 nM
CC50 [6]: 12000 nM

COc1cc(NC(C(=O)N2CCc3ccc(OC(F)(F)F)cc32)c2ccc(Cl)cc2)cc(OCCO)c1 (single isomer, unassigned) [Compound 3A, 2-(4-chlorophenyl)-2-((3-(2-hydroxyethoxy)-5-methoxyphenyl)amino)-1-(6-(trifluoromethoxy)indolin-1-yl)ethanone]
EC50 [1]: 2.3 nM
EC50 [2, 8]: 3.6 nM
EC50 [3, 9]: 2.2 nM
EC50 [4, 10]: 29 nM
EC50 [5, 11]: 190 nM
CC50 [7]: 9600 nM

COc1cc(NC(C(=O)N2CCc3ccc(C(F)(F)F)cc32)c2ccc(Cl)cc2)cc(OCCO)c1 (single isomer, unassigned) [Compound 4A, 2-(4-chlorophenyl)-2-((3-(2-hydroxyethoxy)-5-methoxyphenyl)amino)-1-(6-(trifluoromethyl)indolin-1-yl)ethanone]
EC50 [1]: 3.6 nM
EC50 [2]: 3.9 nM
EC50 [3]: 4.3 nM
EC50 [4]: 27 nM
EC50 [5]: 210 nM
CC50 [7]: 12000 nM

COc1cc(NC(C(=O)N2CCc3ccc(C(F)(F)F)cc32)c2ccc(Cl)cc2)cc(OCCO)c1 (single isomer, unassigned) [Compound 4B, 2-(4-chlorophenyl)-2-((3-(2-hydroxyethoxy)-5-methoxyphenyl)amino)-1-(6-(trifluoromethyl)indolin-1-yl)ethanone]
EC50 [1]: 1100 nM
EC50 [2]: 700 nM
EC50 [3]: 1000 nM
EC50 [4]: > 1900 nM
EC50 [5]: > 2500 nM
CC50 [6]: 14000 nM

COc1cc(NC(C(=O)N2CCc3cc(OC)c(C(F)(F)F)cc32)c2ccc(Cl)cc2F)cc(OCCO)c1 (single isomer, unassigned) [Compound 8B, 2-(4-chloro-2-fluorophenyl)-2-((3-(2-hydroxyethoxy)-5-methoxyphenyl)amino)-1-(5-methoxy-6-(trifluoromethyl)indolin-1-yl)ethanone]
EC50 [1]: 1.9 nM
EC50 [2, 8]: 8.1 nM
EC50 [3, 9]: 2.3 nM
EC50 [4, 10]: 50 nM
EC50 [5, 11]: 120 nM
CC50 [6]: ≥ 76000 nM

COc1cc(NC(C(=O)N2CCc3c(C)cc(OC(F)(F)F)cc32)c2ccc(Cl)cc2)cc(OCCO)c1 (single isomer, unassigned) [Compound 9B, 2-(4-chlorophenyl)-2-((3-(2-hydroxyethoxy)-5-methoxy-phenyl)amino)-1-(4-methyl-6-(trifluoromethoxy)indolin-1-yl)ethanone]
EC50 [1]: 1.4 nM
EC50 [2, 8]: 2.7 nM
EC50 [3, 9]: 1.2 nM
EC50 [4, 10]: 16 nM
EC50 [5, 11]: 110 nM
CC50 [6]: 11000 nM

COc1cc(NC(C(=O)N2CCc3c(C)cc(C(F)(F)F)cc32)c2ccc(Cl)cc2)cc(OCCO)c1 (single isomer, unassigned) [Compound 10B, 2-(4-chlorophenyl)-2-((3-(2-hydroxyethoxy)-5-methoxy-phenyl)amino)-1-(4-methyl-6-(trifluoromethyl)indolin-1-yl)ethanone]
EC50 [1]: 2.2 nM
EC50 [2, 8]: 1.7 nM
EC50 [3, 9]: 2.3 nM
EC50 [4, 10]: 16 nM
EC50 [5, 11]: 160 nM
CC50 [6]: 11000 nM

COc1cc(NC(C(=O)N2CCc3cc(F)c(C(F)(F)F)cc32)c2ccc(Cl)cc2)cc(OCCO)c1 (single isomer, unassigned) [Compound 12A, 2-(4-chlorophenyl)-1-(5-fluoro-6-(trifluoromethyl)indolin-1-yl)-2-((3-(2-hydroxyethoxy)-5-methoxyphenyl)amino)ethanone]
EC50 [1]: 2.3 nM
EC50 [2, 8]: 3.3 nM
EC50 [3, 9]: 4.4 nM
EC50 [4, 10]: 40 nM
EC50 [5, 11]: 240 nM
CC50 [7]: 12000 nM
